Experimental data reported in patent US20250281523A1, “SULFATED GLYCOSAMINOGLYCAN COMPOUNDS, METHODS, AND USES THEREOF” (California Institute of Technology, priority 2024, published 2025).

How the values were obtained:
[1] = biological target: T1, FGF2 (Homo sapiens, UniProt P09038); test: HS tetrasaccharide microarray binding assay, FGF2; settings: glycan microarray; for relative binding of FGF2: compound 50 μM, normalized to the compound with greatest binding
T1 construct: purchased Sino Biological
T1 sequence (P09038 143-288): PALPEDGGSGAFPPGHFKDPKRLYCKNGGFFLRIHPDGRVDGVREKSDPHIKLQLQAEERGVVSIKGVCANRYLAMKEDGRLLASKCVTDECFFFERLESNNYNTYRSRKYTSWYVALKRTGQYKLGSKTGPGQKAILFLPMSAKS
Procedure: (§1) Heparan sulfate tetrasaccharide microarray fabrication. HS oligosaccharides were dissolved in sodium phosphate buffer (pH 8.5, 50 mM) in 9 concentrations: 200 μM, 100 μM, 50 μM, 25 μM, 12.5 μM, 6.25 μM, 3.13 μM, 1.57 μM, 0.79 μM. The robotic arrayer SX (from Scienion, Berlin, Germany) delivered 414 pL of the solution containing oligosaccharides (9 spots per concentration) to the array slides using dispensing nozzle PDC80, P-2040, under ˜50% relative humidity at 20° C. […] The slides were incubated in a chamber with saturated (NH4)2SO4 solution (81% relative humidity) for 24 h at 20° C., and unreacted HS oligosaccharides were removed from the slides by rinsing with deionized water. The remaining N-hydroxysuccinimide (NHS) ester groups were blocked by placing slides in a solution containing 50 mM ethanolamine in PBST (137 mM NaCl, 13 mM Na2HPO4, 1.6 mM NaH2PO4, 2.7 mM KCl, 0.010% Tween-20) at 50° C. for 1.5 h. Slides were rinsed several times with deionized water, dried by centrifugation, and stored before use.
(§2) HS tetrasaccharide microarray binding assay and array slide processing. The slide was blocked with 10% BSA in TBST (4.0 mL) with gentle rocking at RT for 1 h, followed by submerging in TBST. This condition was empirically determined to reduce nonspecific binding of proteins to the microarray and to provide optimal signal-to-noise ratios. Next, 5.0 μL of the primary detection protein ([…], 0.50 μg/mL) solution was transferred to 2.5 mL of TBST w/1% BSA in a chamber and the slide was incubated with gentle shaking for 1 h at RT. The slide was then washed two times for 5 min each in TBST (4.0 mL) while gently rocking. After the washes, the slide was incubated with the appropriate biotinylated antibody ([…], 0.50 μg/mL) in 1% BSA in TBST solution (3.0 mL) with gentle rocking for 1 h. The slide was then washed two times for 5 min in TBST (5.0 mL) while gently rocking. Next, the slide was incubated with 4.0 mL of Alexa Fluor 647-conjugated streptavidin detection solution (1.0 μg/mL in TBST w/1% BSA) in the dark with gentle rocking for 1 h, washed with TBST (5.0 mL, two times) followed by PBS (45 mL, two times) and ddH2O (45 mL, two times), and then dried under a gentle stream of 0.2 micron-filtered air. For his-tagged FGF2, detection was accomplished with an AF647-labeled anti-his antibody. All incubations and washes were carried out at RT unless otherwise noted. The microarray was scanned and analyzed at 647 nm using an Agilent G2565CA Microarray Scanner, and fluorescence quantification was performed using ImageJ software with correction for local background. To ensure accurate signal quantification, the average signal intensity was calculated over a fixed area for all spots. Results were plotted with Prism 9 software at a single concentration as background corrected fluorescence values normalized to the compound with the highest signal. Bar graphs represent the mean±SD for each compound (50 μM) in nonuplicate. Each experiment was performed 2-3 times. Heat maps were generated in Excel with columns sorted by sulfation status of the amino positions and rows sorted by sulfation status of the 2-O- and 6-O-hydroxyl groups.

[2] = biological target: T2, FGF4 (Homo sapiens, UniProt P08620); test: HS tetrasaccharide microarray binding assay, FGF4; settings: glycan microarray, compound 50 μM, normalized to the compound with greatest binding
T2 construct: purchased Peprotech
T2 sequence (P08620 31-206): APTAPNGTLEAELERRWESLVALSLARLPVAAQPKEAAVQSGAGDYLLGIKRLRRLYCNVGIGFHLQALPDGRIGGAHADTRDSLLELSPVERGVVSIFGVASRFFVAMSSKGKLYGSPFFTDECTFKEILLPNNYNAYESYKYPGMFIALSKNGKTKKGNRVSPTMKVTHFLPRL
Procedure: as §1, §2

[3] = biological target: T3, CXCL8 (interleukin-8) (Homo sapiens, UniProt P10145); test: HS tetrasaccharide microarray binding assay, CXCL8; settings: glycan microarray, compound 50 μM, normalized to the compound with greatest binding
T3 construct: recombinant human IL-8 (CXCL8) (77 a.a.) (>95% purity); purchased Peprotech
T3 sequence (P10145 23-99 limits assumed): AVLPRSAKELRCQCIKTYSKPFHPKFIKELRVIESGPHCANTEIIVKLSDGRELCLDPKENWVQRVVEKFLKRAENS
Procedure: as §1, §2

| relative binding of FGF2 [1] | relative binding of FGF4 [2] | FGF2 binding (in words) [1] | relative binding of CXCL8 [3] | Substance |
| --- | --- | --- | --- | --- |
| 2% |  |  |  | GlcNAc6S-IdoA2S-GlcNAc6S-IdoA2S-R [Compound 61] |
| 28% | 27% |  |  | GlcNAc6S-IdoA2S-GlcNS6S-IdoA2S-R [Compound 62] |
|  | 10% | abolished FGF2 binding |  | GlcNAc6S-IdoA2S-GlcNS6S-IdoA-R [Compound 58] |
|  |  | abolished FGF2 binding |  | GlcNAc6S-IdoA2S-GlcNS-IdoA-R [Compound 42] |
|  | 32% |  | 47% | GlcNAc-IdoA2S-GlcNS6S-IdoA2S-R [Compound 46] |
|  |  | abolished FGF2 binding |  | GlcNAc-IdoA2S-GlcNS6S-IdoA-R [Compound 34] |
|  |  |  | 43% | GlcNAc-IdoA2S-GlcNS-IdoA2S-R [Compound 26] |
|  |  | abolished FGF2 binding |  | GlcNAc-IdoA2S-GlcNS-IdoA-R [Compound 14] |
| 70% | 100% |  | 75% | GlcNS6S-IdoA2S-GlcNAc6S-IdoA2S-R [Compound 63] |
|  | 83% |  | 53% | GlcNS6S-IdoA2S-GlcNAc6S-IdoA-R [Compound 59] |
|  | 43% |  |  | GlcNS6S-IdoA2S-GlcNAc-IdoA2S-R [Compound 55] |
|  | 16% |  |  | GlcNS6S-IdoA2S-GlcNAc-IdoA-R [Compound 43] |
| 100% | 81% |  |  | GlcNS6S-IdoA2S-GlcNS6S-IdoA2S-R [Compound 64] |
| 39% | 38% |  | 43% | GlcNS6S-IdoA2S-GlcNS6S-IdoA-R [Compound 60] |
| 63% | 56% |  |  | GlcNS6S-IdoA2S-GlcNS-IdoA2S-R [Compound 56] |
| 3% | 67% | abolished FGF2 binding | 47% | GlcNS6S-IdoA-GlcNAc6S-IdoA2S-R [Compound 51] |

| relative binding of FGF2 [1] | relative binding of FGF4 [2] | FGF2 binding (in words) [1] | relative binding of CXCL8 [3] | Substance |
| --- | --- | --- | --- | --- |
| 2% | 43% |  | 17% | GlcNS6S-IdoA-GlcNAc6S-IdoA-R [Compound 39] |
|  |  | abolished FGF2 binding |  | GlcNS6S-IdoA-GlcNAc-IdoA2S-R [Compound 31] |
| 45% |  |  | 43% | GlcNS6S-IdoA-GlcNS6S-IdoA2S-R [Compound 52] |
| 3% | 52% |  |  | GlcNS6S-IdoA-GlcNS6S-IdoA-R [Compound 40] |
|  | 95% |  | 100% | GlcNS-IdoA2S-GlcNAc6S-IdoA2S-R [Compound 47] |
| 38% | 44% |  | 33% | GlcNS-IdoA2S-GlcNAc6S-IdoA-R [Compound 35] |
|  | 35% |  | 25% | GlcNS-IdoA2S-GlcNAc-IdoA2S-R [Compound 27] |
|  | 16% |  |  | GlcNS-IdoA2S-GlcNAc-IdoA-R [Compound 15] |
| 77% | 49% |  | 61% | GlcNS-IdoA2S-GlcNS6S-IdoA2S-R [Compound 48] |
|  |  |  | 49% | GlcNS-IdoA2S-GlcNS6S-IdoA-R [Compound 36] |
|  | 42% |  | 63% | GlcNS-IdoA2S-GlcNS-IdoA2S-R [Compound 28] |
| 2% |  | abolished FGF2 binding | 29% | GlcNS-IdoA-GlcNAc6S-IdoA2S-R [Compound 23] |
| 0.7% |  |  | 3.3% | GlcNS-IdoA-GlcNAc6S-IdoA-R [Compound 11] |
|  |  | abolished FGF2 binding |  | GlcNS-IdoA-GlcNAc-IdoA2S-R [Compound 7] |
|  |  |  | 63% | GlcNS-IdoA-GlcNS6S-IdoA2S-R [Compound 24] |
